Measured values from the supplement of paper PMC10307832.

Columns and labels:
Test in all cases: relative viability (nuclei count vs DMSO), 5 days (fraction); higher = more cells survive
BEN = test system: BEN
Procedure, shortened: (§1)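 Cells from lung cancer lines were seeded into 1536-well plates and, one day later, dosed by pin tool. Treatments were either a single drug or a fixed dose of an anchor drug with five library-drug doses (not always all listed) in √10 steps. After 5 days, nuclei were stained in a one-step fixation (final 0.05% Triton X-100, 1% formaldehyde, 1 ug/ml Hoechst) and counted on 4× images, and relative viability is the treated-to-vehicle nuclei ratio, as the median of duplicate plates.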

CAL-12T = test system: CAL-12T
Procedure, shortened: as §1

COR-L23 = test system: COR-L23
Procedure, shortened: as §1

LU99A = test system: LU99A
Procedure, shortened: as §1

LXF-289 = test system: LXF-289
Procedure, shortened: as §1

NCI-H1355 = test system: NCI-H1355
Procedure, shortened: as §1

NCI-H1437 = test system: NCI-H1437
Procedure, shortened: as §1

NCI-H1563 = test system: NCI-H1563
Procedure, shortened: as §1

NCI-H1650 = test system: NCI-H1650
Procedure, shortened: as §1

NCI-H1651 = test system: NCI-H1651
Procedure, shortened: as §1

NCI-H1666 = test system: NCI-H1666
Procedure, shortened: as §1

NCI-H1755 = test system: NCI-H1755
Procedure, shortened: as §1

NCI-H1792 = test system: NCI-H1792
Procedure, shortened: as §1

NCI-H1993 = test system: NCI-H1993
Procedure, shortened: as §1

NCI-H2085 = test system: NCI-H2085
Procedure, shortened: as §1

NCI-H2087 = test system: NCI-H2087
Procedure, shortened: as §1

NCI-H2170 = test system: NCI-H2170
Procedure, shortened: as §1

NCI-H460 = test system: NCI-H460
Procedure, shortened: as §1

NCI-H520 = test system: NCI-H520
Procedure, shortened: as §1

PC-14 = test system: PC-14
Procedure, shortened: as §1

SK-MES-1 = test system: SK-MES-1
Procedure, shortened: as §1

For `Cc1csc(=NC2CCCCC2)n1/N=C/c1ccc(O)c(O)c1O` [MIM1] + Cc1nc(Nc2ncc(C(=O)Nc3c(C)cccc3Cl)s2)cc(N2CCN(CCO)CC2)n1 [Dasatinib] (partner 0.075 µM), the relative viability (BEN; first compound 0.2 µM) was 0.304, the relative viability (BEN; first compound 0.6325 µM) was 0.308 and the relative viability (BEN; first compound 2 µM) was 0.348. The relative viability (BEN; first compound 6.325 µM) was 0.378, the relative viability (BEN; first compound 20 µM) was 0.158 and the relative viability (CAL-12T; first compound 0.2 µM) was 0.258. For the same compound, the relative viability (CAL-12T; first compound 0.6325 µM) was 0.38, the relative viability (CAL-12T; first compound 2 µM) was 0.215 and the relative viability (CAL-12T; first compound 6.325 µM) was 0.311. For the same compound, the relative viability (CAL-12T; first compound 20 µM) was 0.115, the relative viability (COR-L23; first compound 0.2 µM) was 0.449 and the relative viability (COR-L23; first compound 0.6325 µM) was 0.552. The relative viability (COR-L23; first compound 2 µM) was 0.464, the relative viability (COR-L23; first compound 6.325 µM) was 0.327 and the relative viability (COR-L23; first compound 20 µM) was 0.335. It also gave a relative viability (LU99A; first compound 0.2 µM) of 0.752, a relative viability (LU99A; first compound 0.6325 µM) of 0.54 and a relative viability (LU99A; first compound 2 µM) of 0.48. It also gave a relative viability (LU99A; first compound 6.325 µM) of 0.37, a relative viability (LU99A; first compound 20 µM) of 0.21 and a relative viability (LXF-289; first compound 0.2 µM) of 0.224. It also gave a relative viability (LXF-289; first compound 0.6325 µM) of 0.174, a relative viability (LXF-289; first compound 2 µM) of 0.194 and a relative viability (LXF-289; first compound 6.325 µM) of 0.275. It also gave a relative viability (LXF-289; first compound 20 µM) of 0.177, a relative viability (NCI-H1355; first compound 0.2 µM) of 0.746 and a relative viability (NCI-H1355; first compound 0.6325 µM) of 0.682. It also gave a relative viability (NCI-H1355; first compound 2 µM) of 0.698, a relative viability (NCI-H1355; first compound 6.325 µM) of 0.655 and a relative viability (NCI-H1355; first compound 20 µM) of 0.391. It also gave a relative viability (NCI-H1437; first compound 0.2 µM) of 0.456, a relative viability (NCI-H1437; first compound 0.6325 µM) of 0.406 and a relative viability (NCI-H1437; first compound 2 µM) of 0.55. The relative viability (NCI-H1437; first compound 6.325 µM) was 0.285, the relative viability (NCI-H1437; first compound 20 µM) was 0.151 and the relative viability (NCI-H1563; first compound 0.2 µM) was 0.538. For the same compound, the relative viability (NCI-H1563; first compound 0.6325 µM) was 0.508, the relative viability (NCI-H1563; first compound 2 µM) was 0.43 and the relative viability (NCI-H1563; first compound 6.325 µM) was 0.524. The relative viability (NCI-H1563; first compound 20 µM) was 0.488, the relative viability (NCI-H1650; first compound 0.2 µM) was 0.304 and the relative viability (NCI-H1650; first compound 0.6325 µM) was 0.316. It also gave a relative viability (NCI-H1650; first compound 2 µM) of 0.24, a relative viability (NCI-H1650; first compound 6.325 µM) of 0.186 and a relative viability (NCI-H1650; first compound 20 µM) of 0.159. For the same compound, the relative viability (NCI-H1651; first compound 0.2 µM) was 0.509, the relative viability (NCI-H1651; first compound 0.6325 µM) was 0.464 and the relative viability (NCI-H1651; first compound 2 µM) was 0.458. It also gave a relative viability (NCI-H1651; first compound 6.325 µM) of 0.282, a relative viability (NCI-H1651; first compound 20 µM) of 0.182 and a relative viability (NCI-H1666; first compound 0.2 µM) of 0.788. The relative viability (NCI-H1666; first compound 0.6325 µM) was 0.852, the relative viability (NCI-H1666; first compound 2 µM) was 0.711 and the relative viability (NCI-H1666; first compound 6.325 µM) was 0.528. For the same compound, the relative viability (NCI-H1666; first compound 20 µM) was 0.41, the relative viability (NCI-H1755; first compound 0.2 µM) was 0.467 and the relative viability (NCI-H1755; first compound 0.6325 µM) was 0.442. The relative viability (NCI-H1755; first compound 2 µM) was 0.424, the relative viability (NCI-H1755; first compound 6.325 µM) was 0.391 and the relative viability (NCI-H1755; first compound 20 µM) was 0.23. It also gave a relative viability (NCI-H1792; first compound 0.2 µM) of 0.786, a relative viability (NCI-H1792; first compound 0.6325 µM) of 0.661 and a relative viability (NCI-H1792; first compound 2 µM) of 0.716. The relative viability (NCI-H1792; first compound 6.325 µM) was 0.757, the relative viability (NCI-H1792; first compound 20 µM) was 0.808 and the relative viability (NCI-H1993; first compound 0.2 µM) was 0.349. The relative viability (NCI-H1993; first compound 0.6325 µM) was 0.57, the relative viability (NCI-H1993; first compound 2 µM) was 0.545 and the relative viability (NCI-H1993; first compound 6.325 µM) was 0.484. It also gave a relative viability (NCI-H1993; first compound 20 µM) of 0.411, a relative viability (NCI-H2085; first compound 0.2 µM) of 0.323 and a relative viability (NCI-H2085; first compound 0.6325 µM) of 0.251. It also gave a relative viability (NCI-H2085; first compound 2 µM) of 0.261, a relative viability (NCI-H2085; first compound 6.325 µM) of 0.241 and a relative viability (NCI-H2085; first compound 20 µM) of 0.253. It also gave a relative viability (NCI-H2087; first compound 0.2 µM) of 0.884, a relative viability (NCI-H2087; first compound 0.6325 µM) of 0.843 and a relative viability (NCI-H2087; first compound 2 µM) of 1.02. It also gave a relative viability (NCI-H2087; first compound 6.325 µM) of 0.685, a relative viability (NCI-H2087; first compound 20 µM) of 0.625 and a relative viability (NCI-H2170; first compound 0.2 µM) of 0.569. It also gave a relative viability (NCI-H2170; first compound 0.6325 µM) of 0.498, a relative viability (NCI-H2170; first compound 2 µM) of 0.73 and a relative viability (NCI-H2170; first compound 6.325 µM) of 0.382. It also gave a relative viability (NCI-H2170; first compound 20 µM) of 0.172, a relative viability (NCI-H460; first compound 0.2 µM) of 0.508 and a relative viability (NCI-H460; first compound 0.6325 µM) of 0.42. For the same compound, the relative viability (NCI-H460; first compound 2 µM) was 0.467, the relative viability (NCI-H460; first compound 6.325 µM) was 0.327 and the relative viability (NCI-H460; first compound 20 µM) was 0.044. The relative viability (NCI-H520; first compound 0.2 µM) was 0.19, the relative viability (NCI-H520; first compound 0.6325 µM) was 0.21 and the relative viability (NCI-H520; first compound 2 µM) was 0.286. The relative viability (NCI-H520; first compound 6.325 µM) was 0.18, the relative viability (NCI-H520; first compound 20 µM) was 0.192 and the relative viability (PC-14; first compound 0.2 µM) was 0.301. It also gave a relative viability (PC-14; first compound 0.6325 µM) of 0.27, a relative viability (PC-14; first compound 2 µM) of 0.171 and a relative viability (PC-14; first compound 6.325 µM) of 0.233. For the same compound, the relative viability (PC-14; first compound 20 µM) was 0.0786, the relative viability (SK-MES-1; first compound 0.2 µM) was 0.369 and the relative viability (SK-MES-1; first compound 0.6325 µM) was 0.371. It also gave a relative viability (SK-MES-1; first compound 2 µM) of 0.259, a relative viability (SK-MES-1; first compound 6.325 µM) of 0.27 and a relative viability (SK-MES-1; first compound 20 µM) of 0.367.
